This is an account of results in paper PMC9072872, “Structure-based design of nucleoside-derived analogues as sulfotransferase inhibitors” (RSC Advances, 2019).

What is called IC50 is the concentration at which inhibition is half-maximal.

The assay concerns the target T1, HS2ST (Gallus gallus, UniProt Q76KB1).
T1 construct: made in house; host or cells: E. coli Rosetta-gami (DE3)
T1 sequence (Q76KB1 1-356): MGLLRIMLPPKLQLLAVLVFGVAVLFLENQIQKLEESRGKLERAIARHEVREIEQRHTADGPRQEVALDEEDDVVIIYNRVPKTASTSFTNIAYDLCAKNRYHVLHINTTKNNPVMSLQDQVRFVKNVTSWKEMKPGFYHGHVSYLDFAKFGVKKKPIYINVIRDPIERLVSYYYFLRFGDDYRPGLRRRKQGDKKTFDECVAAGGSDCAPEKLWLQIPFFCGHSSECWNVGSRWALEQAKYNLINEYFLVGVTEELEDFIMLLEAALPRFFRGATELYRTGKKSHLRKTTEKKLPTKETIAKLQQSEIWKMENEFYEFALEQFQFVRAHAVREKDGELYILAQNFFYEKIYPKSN
Briefly: Microfluidic mobility shift sulfation assay, HS2ST (fluorescent hexasaccharide substrate). The class given is biochemical, chicken. Conditions: for IC50: read-out: IC50 against HS2ST. As for the experimental part:
Compounds were initially screened at 400 μM in the presence 20 nM HS2ST and 0.1 μM TPST1 respectively.
Fig. 4 Summary of enzymatic inhibition assays against HS2ST and TPST1. (A) Enzymatic analysis of HS2ST1 inhibition by a panel of PAP- and PAPS-mimetic compounds. […] HS2ST sulfotransferase activity was assayed using a fluorescent hexasaccharide substrate (2 μM) and normalised to DMSO (4% v/v) or buffer control. Data shown is mean and SD of 4 repeat experiments. (B) Full dose–response curves for selected compounds. […] HS2ST activity calculated as previously described. Data from two independent experiments are combined. (C) Enzymatic analysis of TPST1 inhibition by a panel of PAP- and PAPS-mimetic compounds. […] TPST1 activity was measured using fluorescently-labelled CC4-tide (2 μM) and normalised to DMSO (4% v/v) or buffer control. (D) Full dose–response curves for selected compounds. […] TPST1 activity was measured using CC4-tide and normalised to DMSO or buffer controls as previously described. The data shown is from duplicate experiments.
N-sulfated, fluorescein-tagged HS2ST1 hexasaccharide glycan substrate (GlcNS-GlcA- GlcNS-IdoA-GlcNS-GlcA-fluorescein, where S=sulfation) containing L-IdoA at the third residue from the reducing end (to which a linker and the fluorophore were conjugated) was purchased from GLY CAN therapeutics. TPST1 peptide substrate (CC4-tide, 5-FAM-EDFED YEFDG-CONH2) was synthesised using solid-phase Fmoc chemistry (Pepceuticals, Leicester, UK). All standard laboratory biochemicals, were purchased from Sigma, and were of the highest analytical quality.
5'-phosphosulfate, lithium salt hydrate, PAP (adenosine 3',5'-diphosphate, disodium salt), CoA (coenzymeA, sodium salt), ATP (adenosine 5’-triphosphate, disodium salt hydrate) were all purchased from Sigma and stored at -80 °C to minimise degradation.
Recombinant Protein Production and SDS-PAGE […]
Microfluidics-Based Sulfation Assay
Non-radioactive microfluidic mobility shift peptide and carbohydrate sulfation assays were performed in solution with a 12-sipper chip coated with SR8 reagent and a Perkin Elmer EZ Reader II system 8 using an EDTA-based separation buffer and real-time kinetic evaluation of substrate sulfation. Pressure and voltage settings were adjusted manually to afford optimal separation of the sulfated product and non-sulfated substrate, with a sample (sip) volume of 20 nL, and total assay tim es appropriate for the experiment. The fluorophore tagged TPST1 peptide substrate and HS2ST1 glycan substrate where detected by the EZ Reader via LED-induced fluorescence.
Individual sulfation assays were assembled in a 384 well plate in a volume of 80 µL in the presence of […]
and 5 mM MgCl2. The degree of substrate sulfation was directly calculated using EZ Reader software by measuring the sulfo-product:non-sulfated substrate ratio at each time-point. The act ivity of the sulfotransferase enzymes in the presence of biochemicals and small molecule inhibitors was quantified in ‘kinetic mode’ by monitoring the amount of sulfated product generated over the assay time, relative to control assay with no additional inhibitor molecule (DMSO or buffer control). Data was normalized with respect to these control assays, with sulfate incorporation into the substr ate limited to ~ 20% to prevent depletion of PAPS and to ensure assay linearity. K m and IC50 values were determined by non-linear regression analysis with GraphPad Prism software. […]

With `Nc1ncnc2c1ncn2[C@H]1C[C@H](O)[C@@H](Cn2cc(P(=O)(O)OCc3ccccc3)nn2)O1` [Compound 13], the concentration for half-maximal inhibition (IC50) lay in the range of 100 to 300 µM. Turning to `Nc1ncnc2c1ncn2[C@H]1C[C@H](OP(=O)(O)O)[C@@H](COP(=O)(O)O)O1` [2′-deoxy-PAP], the concentration for half-maximal inhibition (IC50) is 12.7 µM. Same read-out and setting: next, `Nc1ncnc2c1ncn2[C@H]1C[C@H](OP(=O)(O)O)[C@@H](Cn2cc(P(=O)(O)O)nn2)O1` [Compound 12]: 100 to 300 µM. For `Nc1ncnc2c1ncn2[C@H]1C[C@H](O)[C@@H](Cn2cc(P(=O)(O)O)nn2)O1` [Compound 11], the “inhibitory activity against HS2ST” value (compound 400 μM, HS2ST 20 nM, PAPS 5 μM) was “inactive”.
